In PMC5430920 (Scientific Reports, 2017):

Legend:
[1] = target: T1, MtOPRT (Mycobacterium tuberculosis, UniProt P9WHK9)
T1 construct: gene pyrE

[2] = target: T1, MtOPRT; remark: listed apart in the source

T1 sequence (P9WHK9 whole entry): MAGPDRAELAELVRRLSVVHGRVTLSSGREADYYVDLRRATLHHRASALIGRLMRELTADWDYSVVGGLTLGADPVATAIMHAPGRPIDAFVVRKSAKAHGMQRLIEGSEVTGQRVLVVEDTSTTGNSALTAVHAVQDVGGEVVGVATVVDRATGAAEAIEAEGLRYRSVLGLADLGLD

| SMILES | X-ray crystal structure, 2.25 Å [1] | X-ray crystal structure, 1.90 Å [2] |
| --- | --- | --- |
| O=P(O)(O)OC[C@H]1O[C@H](OP(=O)(O)OP(=O)(O)O)[C@H](O)[C@@H]1O [PRPP, α-D-5-phosphoribosyl-1-pyrophosphate] | A PRPP molecule could be unambiguously identified in the active site in both monomers | – |
| O=P(O)(O)O [Pi, inorganic phosphate] | – | the inorganic phosphate occupies the same binding pocket of the 5-phosphate group of PRPP |
